# Test results: US7410975B2, “Small molecule toll-like receptor (TLR) antagonists” (Coley Pharmaceutical Group, Inc., priority 2003, dated 2008)
# Counter-ions that a name gives are not always drawn.
# Target: T1, human TLR7 (hTLR7) (Homo sapiens, UniProt Q9NYK1)
# T1 construct: expressed in transfected cells
# T1 sequence (Q9NYK1 27-1049): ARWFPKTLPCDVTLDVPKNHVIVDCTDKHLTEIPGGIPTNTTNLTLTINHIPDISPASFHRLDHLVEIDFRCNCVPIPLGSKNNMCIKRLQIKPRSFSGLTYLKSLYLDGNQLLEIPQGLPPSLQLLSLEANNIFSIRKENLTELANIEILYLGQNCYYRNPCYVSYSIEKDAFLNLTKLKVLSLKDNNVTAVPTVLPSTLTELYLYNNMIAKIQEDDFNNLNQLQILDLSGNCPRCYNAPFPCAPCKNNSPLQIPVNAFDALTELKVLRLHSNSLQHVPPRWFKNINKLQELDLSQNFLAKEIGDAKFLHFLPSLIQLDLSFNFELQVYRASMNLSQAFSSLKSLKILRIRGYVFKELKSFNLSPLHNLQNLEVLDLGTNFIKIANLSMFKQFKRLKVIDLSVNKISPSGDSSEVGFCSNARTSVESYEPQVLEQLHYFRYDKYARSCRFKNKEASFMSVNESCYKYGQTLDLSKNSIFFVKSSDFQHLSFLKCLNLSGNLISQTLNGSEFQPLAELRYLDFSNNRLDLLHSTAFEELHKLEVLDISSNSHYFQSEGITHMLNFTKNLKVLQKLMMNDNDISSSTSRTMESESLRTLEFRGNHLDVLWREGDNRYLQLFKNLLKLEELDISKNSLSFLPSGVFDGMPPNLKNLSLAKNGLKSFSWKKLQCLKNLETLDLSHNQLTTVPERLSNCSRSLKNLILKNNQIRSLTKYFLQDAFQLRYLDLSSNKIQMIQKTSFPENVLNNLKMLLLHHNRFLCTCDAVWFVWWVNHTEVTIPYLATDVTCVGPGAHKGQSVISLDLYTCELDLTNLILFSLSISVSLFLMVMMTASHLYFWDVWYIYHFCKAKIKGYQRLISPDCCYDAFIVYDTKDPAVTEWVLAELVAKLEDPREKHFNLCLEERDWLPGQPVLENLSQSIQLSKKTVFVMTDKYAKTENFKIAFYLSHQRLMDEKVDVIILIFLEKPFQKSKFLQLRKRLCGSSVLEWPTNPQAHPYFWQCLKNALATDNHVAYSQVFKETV
# Experiment: Antagonist screen, hTLR7-NFκB-293 cells, NF-κB-luciferase reporter, with EC50 of R848
# Type: cell-based
# Details: compound at 0.5, 5, 50 μg/ml; EC50 concentration of R848; 16 h; NF-κB-luciferase
# Description: The method is described in greater detail as follows. The cells for each individual cell clone (hTLR3-NFκB-293, hTLR7-NFκB-293, hTLR8-NFκB-293 and hTLR9-NFκB-293) were counted and seeded one day before the stimulation at 1.5×10^4 cells per well in 96-well cell culture plates. To become adherent the cells were incubated after seeding overnight at 37° C. in 5% CO2 humidified air.
# The screen for each compound was performed at the same time for all of the receptors TLR3, TLR7, TLR8 and TLR9. Up to fifteen test compounds, each assayed in duplicate at each of three different final concentrations (0.5 μg/ml, 5 μg/ml, and 50 μg/ml), were used for 16 h cell stimulation on a single multiwell culture plate. A 4× final concentration master plate was created to prepare the different test compounds before they were added to the cells.
# Controls were added as duplicates individually for each cell clone on the cell culture plate. Positive controls were used as follows (final concentrations): 50 μg/ml poly(I:C) for hTLR3-NFκB-293; 8 μM resiquimod (R848) for hTLR7-NFκB-293; 30 μM R848 for hTLR8-NFκB-293; and 2.5 μM CpG-ODN 2006 for hTLR9-NFκB-293. Media alone was used as negative control. After addition of controls and small molecules, the cell clones were additionally stimulated with the EC50 concentration of the appropriate receptor-specific ligand.
# The mean value of wells H2 and H5 (each with cells and EC50 concentration of the appropriate receptor-specific ligand) divided by the mean of wells H3 and H6 (each with cells alone) yielded the baseline response (i.e., fold induction of luciferase activity) to EC50 concentration of the appropriate receptor-specific ligand.
# After 16 h stimulation the supernatant was removed and the cells treated with lysis buffer and stored at −80° C. before measuring.
# For each screen result a graphical documentation was performed.
# The baseline result (measured with addition of the EC50 concentration of the receptor-specific ligand) for each cell culture plate was measured as described above. Antagonistic effects were measured by down regulation compared to the baseline. Antagonists were scored as follows: • 13: compounds for which there was clear down regulation at 0.5 μg/ml, 5 μg/ml, and 50 μg/ml; • 12: compounds for which there was clear down regulation at 5 μg/ml and 50 μg/ml; • 11: compounds for which there was clear down regulation only at 50 μg/ml; • —: compounds for which there was no clear down regulation even at 50 μg/ml. Agonists
# Results were expressed as fold induction over baseline luciferase activity measured in the absence of R848. […] Additional screening was performed in like manner using additional small molecules selected from another library or specifically prepared for this purpose. Scoring is reported as above but as applied to TLR7.
row,SMILES,"hTLR7 (inhibitory effect, antagonist score)"
1,"COC(=O)C1=CO[C@@H](C)[C@@H]2CN3CCc4c([nH]c5ccccc45)[C@@H]3C[C@H]12 [compound 593, Tetrahydroalstonine]",11 (compounds for which there was clear down regulation only at 50 μg/ml)
2,"CC[C@]12CCCN3CCc4c(n(c5ccccc45)C(=O)C1)[C@@H]32 [compound 607, Eburnamonine]",11 (compounds for which there was clear down regulation only at 50 μg/ml)
3,"Cc1nccc2c1[nH]c1cc(O)ccc12.Cl [compound 612, Harmol hydrochloride monohydrate]",11 (compounds for which there was clear down regulation only at 50 μg/ml)
4,"COc1ccc2c(c1)[nH]c1c(C)nccc12.Cl [compound 613, harmine hydrochloride]","13 (compounds for which there was clear down regulation at 0.5 μg/ml, 5 μg/ml, and 50 μg/ml)"
5,"Cc1c2ccncc2c(C)c2c1[nH]c1ccccc12 [compound 614, Ellipticine]","13 (compounds for which there was clear down regulation at 0.5 μg/ml, 5 μg/ml, and 50 μg/ml)"
6,"Cc1nccc2c1[nH]c1ccccc12 [compound 620, Harmane hydrochloride]",— (compounds for which there was no clear down regulation even at 50 μg/ml)
7,"COc1ccc2[nH]c3c(c2c1)CCN=C3C [compound 621, Methoxy-6-harmalan]",— (compounds for which there was no clear down regulation even at 50 μg/ml)
8,"CC[C@]12CCCN3CCc4c(n(c5ccccc45)[C@](O)(C(=O)OC)C1)[C@@H]32 [compound 636, Epivincamine]",— (compounds for which there was no clear down regulation even at 50 μg/ml)
9,"Cl.Cl.c1ccc2c3c([nH]c2c1)C1C2CCC(C4CCCNC42)N1CC3 (stereo not shown) [compound 685, Nitrarine dihydorchloride]",— (compounds for which there was no clear down regulation even at 50 μg/ml)
10,"CN(C)CCCN1c2ccccc2Sc2ccccc21.Cl [compound 693, Promazinehydrochloride]",12 (compounds for which there was clear down regulation at 5 μg/ml and 50 μg/ml)
11,"CN1CCC(OC(c2ccccc2)c2ccccc2)CC1.Cl [compound 707, Diphenylpyralinehydrochloride]",11 (compounds for which there was clear down regulation only at 50 μg/ml)
12,"CCCC(C(=O)OCCN(CC)CC)(c1ccccc1)c1ccccc1.Cl [compound 778, Proadifen hydrochloride]",11 (compounds for which there was clear down regulation only at 50 μg/ml)
13,"Cl.Clc1ccc(C(OCCN2CCCCC2)c2ccccc2)cc1 (stereo not shown) [compound 793, Cloperastinehydrochloride]",11 (compounds for which there was clear down regulation only at 50 μg/ml)
14,"COc1ccc2c(c1)N(CC(C)CN(C)C)c1ccccc1S2.O=C(O)/C=C\C(=O)O (stereo not shown) [compound 797, Methotrimeprazinemaleat salt]",— (compounds for which there was no clear down regulation even at 50 μg/ml)
15,"CS(=O)(=O)O.OC(CCN1CCCCC1)(c1ccccc1)c1ccccc1 [compound 799, Pridinolmethanesulfonate salt]",— (compounds for which there was no clear down regulation even at 50 μg/ml)
16,"C[N+]12CCC(CC1)C(OC(=O)C(O)(c1ccccc1)c1ccccc1)C2.[Br-] (stereo not shown) [compound 822, Clidinium bromide]",— (compounds for which there was no clear down regulation even at 50 μg/ml)

row,SMILES,"hTLR7 (inhibitory effect, antagonist score)"
1,"Clc1ccc(C(c2ccccc2Cl)C(Cl)Cl)cc1 (stereo not shown) [compound 833, Mitotane]",11 (compounds for which there was clear down regulation only at 50 μg/ml)
2,"CCN(CC)C(C)CN1c2ccccc2Sc2ccccc21.Cl (stereo not shown) [compound 840, Ethopropazinehydrochloride]",— (compounds for which there was no clear down regulation even at 50 μg/ml)
3,"CC(CN(C)C)CN1c2ccccc2Sc2ccccc21.CC(CN(C)C)CN1c2ccccc2Sc2ccccc21.O=C(O)C(O)C(O)C(=O)O (stereo not shown) [compound 842, Trimeprazine tartrate]",— (compounds for which there was no clear down regulation even at 50 μg/ml)
4,"COC(=O)[C@H]1[C@H]2C[C@@H]3c4[nH]c5cc(OC)ccc5c4CCN3C[C@H]2C[C@@H](OC(=O)c2cc(OC)c(OC)c(OC)c2)[C@@H]1OC [compound 875, Reserpine]",— (compounds for which there was no clear down regulation even at 50 μg/ml)
5,"OCc1cc2c(cn1)[nH]c1ccccc12 [compound 878, 3-hydroxymethyl-beta-carboline]",— (compounds for which there was no clear down regulation even at 50 μg/ml)
6,O=C(O)c1cc(C(c2ccc(O)c(C(=O)O)c2)C(Cl)(Cl)Cl)ccc1O [compound 884],11 (compounds for which there was clear down regulation only at 50 μg/ml)
7,CN(CCO)C(=O)c1cccc2c1-c1ccccc1C2=O [compound 890],11 (compounds for which there was clear down regulation only at 50 μg/ml)
8,COC(=O)c1cccc2c1-c1ccccc1/C2=N/O [compound 904],12 (compounds for which there was clear down regulation at 5 μg/ml and 50 μg/ml)
9,O=C(O)c1ccccc1NC1CC=CC2=C1C(=O)c1ccccc1C2=O (stereo not shown) [compound 917],11 (compounds for which there was clear down regulation only at 50 μg/ml)
10,O=C(O)c1cccc2c1/C(=N/O)c1ccccc1-2 [compound 918],11 (compounds for which there was clear down regulation only at 50 μg/ml)
11,CCCCOC(=O)c1cc([N+](=O)[O-])cc2c1-c1cc(CO)c([NH+]([O-])O)cc1C2=C(C#N)C#N (stereo not shown) [compound 939],11 (compounds for which there was clear down regulation only at 50 μg/ml)
12,O=C(O)c1cccc2c1-c1ccccc1/C2=N/Nc1ccc([N+](=O)[O-])cc1[N+](=O)[O-] [compound 944],11 (compounds for which there was clear down regulation only at 50 μg/ml)
13,C=CCc1ccccc1OC1(c2ccccc2)OC(=O)c2ccccc21 (stereo not shown) [compound 957],11 (compounds for which there was clear down regulation only at 50 μg/ml)
14,COC(=O)c1ccc(C2CC(=O)Nc3c2ccc2ccccc32)cc1 (stereo not shown) [compound 965],12 (compounds for which there was clear down regulation at 5 μg/ml and 50 μg/ml)
15,O=C(O)c1ccc(C2(c3ccc(C(=O)O)cc3)OC(=O)c3ccccc32)cc1 [compound 970],— (compounds for which there was no clear down regulation even at 50 μg/ml)
